Experimental data as given in patent US5206250A, “Bis-naphthalimides containing amide and thioamide linkers as anticancer agents” (Du Pont Merck Pharmaceutical Company, priority 1991, dated 1993).
Values after ≈ are worked out from the molar mass of the structure shown.

Tested on: L1210 cells
Assay: In vitro Growth Inhibitory Activity Determination (L1210 cells, MTT)
Format: cell-based
Conditions: Mus musculus, 72 h, 3 days incubation at 37° C., dose of drug that inhibits the growth of cells to one half that of the control cells, read-out: ID50 (the source's name)
Method: L1210 cells were maintained in RPMI=1640 a medium supplemented with 10% heat inactivated fetal bovine serum and […] mercaptomethanol/liter medium (RPMI-L).
Exponential growing L1210 cells (1×10^3 cells) in 0.1 mL medium were seeded on day 0 in a 96-well microtiter plate. On day 1, 0.1 mL aliquot of medium containing graded concentration of test analogs was added to the initial volume. After incubation at 37° C. in a humidified incubator for 3 days, the plates were centrifuged briefly and […] of the growth medium was removed. Cell cultures were incubated with […] of 3-(4, 5-dimethylthiazol-2yl)-2,5- diphenyltetrazolium bromide (MTT; 1 mg/ml in Dulbecco's phosphate buffer saline) for 4 hours at 37° C. The resulting purple formazan precipitate was solubilized with […] of 0.04 N HCl in isopropyl alcohol. Absorbance was read in a Titertek Multiskan MCC scaning well spectrophotometer (Flow Laboratories) at a test wavelength of 570 nm and a reference wavelength of 630 nm.
The absorbances were stored on a floppy disk on a IBM-XT and uploaded on to a VAX computer.
Y=((AM - Ao)/(1+(X/ID50)n))+Ao
Am=absorbance of the control cells
Ao=absorbance of the cells in the presence of highest drug conc.
ID50 =dose of drug that inhibits the growth of cells to one half that of the control cells.

How did the IC50 turn out when `C[C@@H](C(=O)NCCNC(=O)[C@H](C)N1C(=O)c2cccc3cc([N+](=O)[O-])cc(c23)C1=O)N1C(=O)c2cccc3cc([N+](=O)[O-])cc(c23)C1=O` [Example 1, (S,S)-N,N'-1,2-ethanediylbis[α-methyl-5-nitro-1,3-dioxo-1H-benz[de]isoquinoline-2(3H)-acetamide]] was run?
Its IC50 is 0.61 µg/mL (≈ 0.935 µM).

With `C[C@H](C(=O)NCCNC(=O)[C@@H](C)N1C(=O)c2cccc3cc([N+](=O)[O-])cc(c23)C1=O)N1C(=O)c2cccc3cc([N+](=O)[O-])cc(c23)C1=O` [Example 2, (R,R)-N,N'-1,2-ethanediylbis[α-methyl-5-nitro-1,3-dioxo-1H-benz[de]isoquinoline-2(3H)-acetamide]] as the compound, how does the IC50 read?
The IC50 was 0.033 µg/mL (≈ 0.0506 µM).

With `CSCC[C@@H](C(=O)NCCCNC(=O)[C@H](CCSC)N1C(=O)c2cccc3cc([N+](=O)[O-])cc(c23)C1=O)N1C(=O)c2cccc3cc([N+](=O)[O-])cc(c23)C1=O` [Example 3] as the compound, how does the IC50 read?
The IC50 was 0.12 µg/mL (≈ 0.153 µM).

Which IC50 does the source give for `C[C@@H](C(=O)NCCCCNC(=O)[C@H](C)N1C(=O)c2cccc3cc([N+](=O)[O-])cc(c23)C1=O)N1C(=O)c2cccc3cc([N+](=O)[O-])cc(c23)C1=O` [Example 4] here?
Its IC50 is 0.36 µg/mL (≈ 0.529 µM).

Which IC50 does the source give for `C[C@@H](C(=O)NCCCNC(=O)[C@H](C)N1C(=O)c2cccc3cc([N+](=O)[O-])cc(c23)C1=O)N1C(=O)c2cccc3cc([N+](=O)[O-])cc(c23)C1=O` [Example 5] here?
Its IC50 is 0.025 µg/mL (≈ 0.0375 µM).

Which IC50 does the source give for `C[C@@H](C(=S)NCCNC(=S)[C@H](C)N1C(=O)c2cccc3cc([N+](=O)[O-])cc(c23)C1=O)N1C(=O)c2cccc3cc([N+](=O)[O-])cc(c23)C1=O` [Example 6, (S,S)-N,N'-1,2-ethanediylbis[α-methyl-5-nitro-1,3-dioxo-1H-benz[de]isoquinoline-2(3H)ethanethioamide]] here?
Its IC50 is 0.184 µg/mL (≈ 0.269 µM).

How did the IC50 turn out when `O=C(CCN1C(=O)c2cccc3cc([N+](=O)[O-])cc(c23)C1=O)NCCCCNC(=O)CCN1C(=O)c2cccc3cc([N+](=O)[O-])cc(c23)C1=O` [Example 7] was run?
Its IC50 is 19 µg/mL (≈ 27.9 µM).

How did the IC50 turn out when `O=C(CCN1C(=O)c2cccc3cc([N+](=O)[O-])cc(c23)C1=O)NCCCNC(=O)CCN1C(=O)c2cccc3cc([N+](=O)[O-])cc(c23)C1=O` [Example 8] was run?
The IC50 was over 20 µg/mL.

With `O=C(CCN1C(=O)c2cccc3cc([N+](=O)[O-])cc(c23)C1=O)NCCNC(=O)CCN1C(=O)c2cccc3cc([N+](=O)[O-])cc(c23)C1=O` [Example 9] as the compound, how does the IC50 read?
Its IC50 is 15.1 µg/mL (≈ 23.1 µM).
